According to the NIST ThermoML archive (doi:10.1021/je100104v):

Tests used:
[1] = xn = mol fraction of the nth substance listed; conditions: Liquid; for electrical conductivity / viscosity: 101.3 kPa; for electrical conductivity: Eutech Cyberscan Con 11; for mass density: 101 kPa
[2] = refractive index (Na D-line) (dimensionless); xn = mol fraction of the nth substance listed; conditions: 101.3 kPa, Liquid, Standard Abbe refractometry

NC(=O)C(F)(F)F [2,2,2-trifluoroacetamide] + C[P+](c1ccccc1)(c1ccccc1)c1ccccc1.[Br-]
Conditions	electrical conductivity, [1] [S/m]	mass density, [1] [kg/m3]	refractive index, [2]	viscosity, [1] [mPa·s]
278.1 K, x2 = 0.111	0.0134	–	–	657.7
288.15 K, x1 = 0.111	–	–	1.4913	–
288.15 K, x2 = 0.111	0.0351	–	–	405.9
298.15 K, x1 = 0.111	–	–	1.4849	–
298.15 K, x2 = 0.111	0.0848	1394.7	–	136.5
308.15 K, x1 = 0.111	–	–	1.4824	–
308.15 K, x2 = 0.111	0.182	1383.7	–	71.3
318.15 K, x1 = 0.111	–	–	1.4782	–
318.15 K, x2 = 0.111	0.282	1372.7	–	39
328.15 K, x1 = 0.111	–	–	1.4745	–
328.15 K, x2 = 0.111	0.349	1361.6	–	24.1
338.15 K, x1 = 0.111	–	–	1.4737	–
338.15 K, x2 = 0.111	0.418	1350.4	–	16.6
348.15 K, x2 = 0.111	0.482	1339.3	–	11.1
358.15 K, x2 = 0.111	0.55	1328.2	–	0.9
368.15 K, x2 = 0.111	0.609	–	–	–

[Cl-].c1ccc(C[P+](c2ccccc2)(c2ccccc2)c2ccccc2)cc1 [benzyltriphenylphosphonium chloride] + OCC(O)CO
Conditions	electrical conductivity, [1] [S/m]	refractive index, [2]	viscosity, [1] [mPa·s]
328.15 K, x1 = 0.167	–	–	553.7
328.15 K, x2 = 0.167	–	1.5502	–
338.15 K, x1 = 0.167	0.00187	–	339.3
338.15 K, x2 = 0.167	–	1.5168	–
348.15 K, x1 = 0.167	0.00167	–	118.6
358.15 K, x1 = 0.167	0.00151	–	75.5
368.15 K, x1 = 0.167	0.00139	–	38.7

[Cl-].c1ccc(C[P+](c2ccccc2)(c2ccccc2)c2ccccc2)cc1 [benzyltriphenylphosphonium chloride] + OCCO
Conditions	electrical conductivity, [1] [S/m]	refractive index, [2]	viscosity, [1] [mPa·s]
328.15 K, x1 = 0.25	0.0485	–	201.9
328.15 K, x2 = 0.25	–	1.5258	–
338.15 K, x1 = 0.25	0.0199	–	85.5
338.15 K, x2 = 0.25	–	1.5309	–
348.15 K, x1 = 0.25	0.00164	–	59.3
358.15 K, x1 = 0.25	0.00148	–	50.5
368.15 K, x1 = 0.25	0.00136	–	35.9

C[P+](c1ccccc1)(c1ccccc1)c1ccccc1.[Br-] [methyltriphenylphosphonium bromide] + OCC(O)CO
Conditions	electrical conductivity [S/m]	mass density [kg/m3]	refractive index	viscosity [mPa·s]
[1], 278.1 K, x1 = 0.3636	0.00375	–	–	–
[1], 288.15 K, x1 = 0.3636	0.00826	–	–	–
[1], 298.15 K, x1 = 0.3636	0.0165	1289.9	–	–
[1], 308.15 K, x1 = 0.3636	0.0315	1283	–	–
[1], 318.15 K, x1 = 0.3636	0.0555	1275.9	–	887.1
[1], 328.15 K, x1 = 0.3636	0.0901	1268.8	–	414.9
[1], 338.15 K, x1 = 0.3636	0.127	1261.9	–	205.7
[1], 348.15 K, x1 = 0.3636	0.182	1255	–	104.8
[1], 358.15 K, x1 = 0.3636	0.242	1248	–	77.4
[1], 368.15 K, x1 = 0.3636	0.315	–	–	36.9
[2], 288.15 K, x2 = 0.3636	–	–	1.5708	–
[2], 298.15 K, x2 = 0.3636	–	–	1.5666	–
[2], 308.15 K, x2 = 0.3636	–	–	1.5656	–
[2], 318.15 K, x2 = 0.3636	–	–	1.5627	–
[2], 328.15 K, x2 = 0.3636	–	–	1.5607	–
[2], 338.15 K, x2 = 0.3636	–	–	1.5578	–

C[P+](c1ccccc1)(c1ccccc1)c1ccccc1.[Br-] [methyltriphenylphosphonium bromide] + OCCO
Conditions	electrical conductivity, [1] [S/m]	mass density, [1] [kg/m3]	refractive index, [2]	viscosity, [1] [mPa·s]
278.1 K, x1 = 0.2	0.0371	–	–	345
288.15 K, x1 = 0.2	0.055	–	–	186.1
288.15 K, x2 = 0.2	–	–	1.5622	–
298.15 K, x1 = 0.2	0.0788	1232.6	–	109.8
308.15 K, x1 = 0.2	0.109	1225.6	–	68.6
308.15 K, x2 = 0.2	–	–	1.5542	–
318.15 K, x1 = 0.2	0.144	1218.5	–	39.5
328.15 K, x1 = 0.2	0.188	1211.4	–	19.7
328.15 K, x2 = 0.2	–	–	1.5483	–
338.15 K, x1 = 0.2	0.234	1204.3	–	5.4
338.15 K, x2 = 0.2	–	–	1.5446	–
348.15 K, x1 = 0.2	0.285	1197.2	–	1.8
358.15 K, x1 = 0.2	0.338	1190	–	–
368.15 K, x1 = 0.2	0.382	–	–	–
